Our source for the AC35 values is PubChem BioAssay AID743402 (Broad Institute, 2014).

The first experiment has as its system FRT CFTR-F508del YFP iodide quenching, 24 h. Description: restoration of mutant CFTR halide transport – FRT cells, YFP quenching, cherry-pick, dose response (AID 743402).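 Also: compounds act as correctors raising surface CFTR-F508del before acute activation.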
Settings: not given
For `Nc1ccc2ccc3cccc[n+]3c2c1`, the AC35 is 7.53 µM.
For the molecule `CCC1(C)OC(c2ccccc2)=C/C(=C/C=C2C(=O)NC(=O)NC2=O)O1` (stereo unspecified), the AC35 was 11.7 µM.
Take `C[n+]1c2cc(N)ccc2cc2ccc(N)cc21`: the AC35 was 0.19 µM.
For `CC1(C)OC(c2ccccc2)=C/C(=C/C=C2C(=O)NC(=O)NC2=O)O1`, the AC35 is 13.4 µM.
Same read-out and setting: the result for `C[C@H]1CCC/C=C/[C@@H]2C[C@H](O)C[C@H]2[C@H](O)/C=C/C(=O)O1` reads 15.2 µM.

The same experiment, now with this note: channel opened with forskolin and a potentiator.
As for `C=CCN1C(=O)/C(=C/C=C2/N(CC)c3ccc(S(=O)(=O)N(C)C)cc3N2CC)SC1=S`, the AC35 is 1.3 µM.
As to `CCC1=C(CC2NCCc3ccccc32)CC2c3cc(OC)c(OC)cc3CCN2C1` (stereo unspecified), the AC35 was 15.4 µM.
With `CN(C)CCNc1ccc2ncn3c4ccc(O)cc4c(=O)c1c23`, the AC35 is 8.57 µM.
For `C[n+]1c2cc(N)ccc2cc2ccc(N)cc21`, the AC35 is 0.51 µM.
Take `CN(C)CCCNc1c2ccccc2nc2ccccc12`: the AC35 is 3.57 µM.
As for `O=c1ccc2c(-c3ccccc3)c3ccc(O)cc3oc-2c1`, the AC35 is 1.11 µM.
`C[C@@H]1CN([C@@H](C)CO)C(=O)Cc2cc(NC(=O)Nc3cccc4ccccc34)ccc2O[C@@H]1CN(C)Cc1ccc(Cl)c(Cl)c1`: the AC35 is 22.4 µM.
On to `N#CC(C#N)=C1C=C2C=C(N3CCCCCC3)CCC2CC1` (stereo unspecified), for which the AC35 is 0.0871 µM.
Take `COC(=O)Cn1c(=NC(=O)c2cc(-c3cccs3)nc3ccccc23)sc2cc(S(N)(=O)=O)ccc21`: the AC35 is 9.92 µM.
Same read-out and setting: the result for `Cc1cc2[nH]c3c(c[n+](C)c4ccccc34)c2cc1C` reads 13.4 µM; that for `CC(=O)Oc1ccc(N2C(=O)c3cccc4c([N+](=O)[O-])ccc(c34)C2=O)cc1`, 8.38 µM; that for `O=C1/C(=C\c2cc(Cl)c(O)c(Cl)c2)SC(=S)N1Cc1ccccc1`, 0.214 µM.
`CCCC#Cc1ccc([C@H]2[C@H](CO)N3C(=O)CN(C(=O)Nc4cc(F)ccc4F)C[C@@H]23)cc1`: the AC35 was 23.3 µM.
As for `c1ccc2c(NCCCN3CCOCC3)c3ccccc3nc2c1`, the AC35 is 16.6 µM.
Consider `N#C/C(=C/c1ccc(N2CCCCC2)o1)C(=O)Nc1ccc2ccccc2c1`, for which the AC35 was 2.37 µM.
Take `CCC(=O)N1CC2(CCN(Cc3ccc(Cl)cc3)CC2)c2c([nH]c3cc(OC)ccc23)[C@H]1CO`: the AC35 is 22.2 µM.
Same read-out and setting: next, `O=C1c2cccc3c(N4CCCCC4)ccc(c23)C(=O)N1c1cccc(O)c1`: 4.44 µM.
As to `Cc1ccc(S(=O)(=O)Nc2ccc3c(c2)CC(=O)N([C@@H](C)CO)C[C@@H](C)[C@@H](CN(C)Cc2ccc(Cl)c(Cl)c2)O3)cc1`, the AC35 was 22.6 µM.
In the case of `COc1cccc2c1C(=O)c1c(O)c3c(c(O)c1C2=O)C[C@@](O)(C(C)=O)C[C@@H]3O[C@H]1C[C@H](N)[C@H](O)[C@H](C)O1`, the AC35 was 0.856 µM.
With `CN(C)CCNC(=O)c1ccc(Cl)c2cc3ccccc3nc12`, the AC35 is 9.45 µM.
On the same count and under the same terms, the result for `COc1ccc(OC)c(-c2nnc3n2N=C(c2ccc(OC)c(OC)c2)CS3)c1` reads 5.34 µM; that for `CN1c2ccc(-c3ccc(F)cc3)cc2[C@H]2[C@H](CCN2S(=O)(=O)c2cccc(F)c2)[C@H]1CO`, 15.5 µM.
In the case of `O=C(Nc1cccc(F)c1)N1CCCCN2[C@@H](CO)[C@H](c3ccc(C#Cc4ccccc4)cc3)[C@@H]2C1`, the AC35 was 19.7 µM.
With `COc1ccc(-c2cnc3c(NC=O)cc(-c4ccccc4)cn23)cc1OC`, the AC35 was 10.4 µM.
Regarding `CO[C@@]12[C@@H]3N[C@@H]3CN1C1=C(C(=O)C(N)=C(C)C1=O)[C@@H]2COC(N)=O`, the AC35 was 19.4 µM.
The same measure, in the same setting: the result for `CCOC(=O)C1CCCN(c2ccc([N+](=O)[O-])c3nonc23)C1` (stereo unspecified) reads 5.34 µM; that for `O=C(C1CC1)N1CC(=O)N2[C@H](CO)[C@@H](c3ccc(-c4ccccc4F)cc3)[C@@H]2C1`, 19.7 µM.
With `CN1/C(=C\C=C2/SC(=S)NC2=O)C(C)(C)c2ccccc21`, the AC35 was 2.6 µM.
`CCN(CC)c1ccc(/C=C(/C#N)c2nc3ccc(C)cc3[nH]2)c(OC(C)C)c1`: the AC35 was 0.796 µM.
As to `C=C1SC(Nc2c(C)cc(C)cc2C)=NC12CCCCC2`, the AC35 was 3.59 µM.
Take `COc1ccc(OC)c(Nc2nc(-c3sc(NC(=O)C(C)(C)C)nc3C)cs2)c1`: the AC35 was 0.908 µM.
Turning to `CCN1C(=O)c2cccc3c(N)ccc(c23)C1=O`, the AC35 was 2.83 µM.
With `N#Cc1ccc(-c2ccc(C3[C@@H]4CN(C(=O)C5CCC5)C[C@H]3N4)cc2)cc1` (stereo partly specified), the AC35 is 22.1 µM.
As for `CC(=O)Nc1sc2c(c1-c1nc3ccccc3s1)CN(C(C)C)CC2`, the AC35 was 10.7 µM.
For `COc1ccc2noc3c2c1C(=O)c1ccccc1-3`, the AC35 is 5.51 µM.
Consider `CCOc1ccc(C)cc1S(=O)(=O)n1cnc2ccccc21`, for which the AC35 was 15.9 µM.
